Patent publication US8217006B2, “Inhibiting GS-FDH to modulate no bioactivity” (Duke University, priority 2001, dated 2012)
Blank lines part the entries; values can stand above or below the compound they belong to.

How the values were obtained:
[1] = test system: impotence; experiment: Example XIII: diabetic patient with impotence; format: in vivo, human
From the text: A diabetic with a history of impotence presents to their urologist. […] Their physician adds topical mycophenolic acid (5% paste) with good results.

[2] = test system: malignant hypertension; experiment: Example XXVIII: heart failure and malignant hypertension; format: in vivo, human
From the text: A person presents with heart failure and malignant hypertension.

[3] = test system: 90% lesion of the left anterior descending coronary artery; settings: 600 mg P.O. three times a day for a month
From the text: A person has a stent placed for 90% lesion of the left anterior descending coronary artery.

[4] = test system: pinworm; settings: 1 gram daily for three days
[5] = test system: ARDS; settings: inhaled 10 mM in 3 cc normal saline; from 60 mm Hg on 100% oxygen; over 1 hour
From the text: A person develops ARDS as a complication of urosepsis. They are intubated and transferred to the Intensive Care Unit.

[6] = test system: unstable angina; settings: intravenous infusion 100 mg per kg Q6 hours; on betablockers and nitrates
From the text: A person status post CABG×2 presents with unstable angina.

[7] = test system: angina; experiment: Example XXVII: angina treated with nitroglycerine and GS-FDH inhibitor; format: in vivo, human; settings: 600 mg TIE, concomitantly with nitroglycerine
[8] = test system: cystic fibrosis; experiment: Example II: patient with cystic fibrosis; format: in vivo, human; settings: inhaled S-nitrosoglutathione (10 mM in 3 cc) in combination with D-glutathione (3 mM in 10 cc); over the following day
From the text: A person with cystic fibrosis presents to the Emergency Room with difficulty breathing and a fever.

[9] = test system: swollen abdomen and elevated LSTs; settings: infusion 200 milligrams per kilogram every 6 hours for two weeks
[10] = test system: severe heart failure; settings: infusion 1 gram TED for 10 days
From the text: A person with acute viral myocarditis develops severe heart failure. […] They are placed on the transplant list.

[11] = test system: benign prostatic hypertrophy; settings: 600 mg three times a day; over three months
[12] = test system: squamous cell cancer; settings: intravenously 200 milligrams per kilogram four times a day; stage 3B before
[13] = test system: blood pressure; settings: 600 milligrams BID; three weeks later; 160/90 before
From the text: A person presents to their primary care physician.

[14] = test system: wheezing; settings: intravenous infusion 50 mg/kg Q.6 hours; person
[15] = test system: Hodgkins disease; settings: 1 gram three times a day for a month
From the text: A person has a biopsy done on an axillary node which establishes the diagnosis of Hodgkins disease.

[16] = test system: viral pneumonia; settings: inhaled, 3 mM/3 cc normal saline four times a day
From the text: A person status post lung transplant is admitted to the hospital with viral pneumonia.

[17] = test system: liver function; settings: infusion 200 milligrams per kilogram every 6 hours; over the following week
From the text: A child presents to the Emergency Room having ingested a toxic dose of Tylenol. […] This is an example of treating a patient for a disease where there is risk of apoptosis occurring.

[18] = test system: atherosclerosis; settings: 600 mg TID for a week
[19] = test system: injured mouse liver cells deficient in GS-FDH; experiment: Survival of GS-FDH-deficient cells from cytokine-injured mouse liver treated with NO synthase inhibitor; format: cell-based; settings: same cells but deficient in GS-FDH; 1 millimolar
Method: (§1) Hepatocytes of wild-type mice and their GS-FDH^−/− littermates were harvested after perfusion of the livers with Liberase (Roche), and purified by repeated differential sedimentation at 50×g, followed by centrifugation over a 30% Percoll solution. […] The cells were then cultured in the presence of recombinant mouse tumor necrosis factor-α (500 units/ml), interferon-gamma (100 units/ml), interleuken-1β (200 units/ml) and lipopolysaccharide (LPS, 10 μg/ml; E. coli 0128:B12; Sigma) for 14 and 40 hours. Nitrosylation levels in hepatocytes were measured as described in Eu, J., et al., Biochemistry 39, 1040-1047 (2000). […] See Liu, L. and Stamler, J. S., Cell Death and Differentiation 6, 937-942 (1999).

[20] = test system: Cells from an injured mouse liver; experiment: Survival of cells from cytokine-injured mouse liver treated with NO synthase inhibitor; format: cell-based; settings: 1 millimolar
Method: as §1

[21] = molecular target: T1, mouse GS-FDH (Mus musculus, UniProt P28474); experiment: Kinetic analysis of purified GSNO reductase (GS-FDH) from RAW 264.7 cells; format: biochemical; settings: purified protein
T1 construct: GSNO-metabolizing activity of RAW 264.7 cells was recovered in a single function following anion exchange on a MonoQ column; endogenous in cells; host or cells: RAW 264.7 mouse macrophages (ATCC); purified by ammonium sulfate precipitation, MonoQ and 5' AMP Sepharose 4B
T1 sequence (P28474 whole entry): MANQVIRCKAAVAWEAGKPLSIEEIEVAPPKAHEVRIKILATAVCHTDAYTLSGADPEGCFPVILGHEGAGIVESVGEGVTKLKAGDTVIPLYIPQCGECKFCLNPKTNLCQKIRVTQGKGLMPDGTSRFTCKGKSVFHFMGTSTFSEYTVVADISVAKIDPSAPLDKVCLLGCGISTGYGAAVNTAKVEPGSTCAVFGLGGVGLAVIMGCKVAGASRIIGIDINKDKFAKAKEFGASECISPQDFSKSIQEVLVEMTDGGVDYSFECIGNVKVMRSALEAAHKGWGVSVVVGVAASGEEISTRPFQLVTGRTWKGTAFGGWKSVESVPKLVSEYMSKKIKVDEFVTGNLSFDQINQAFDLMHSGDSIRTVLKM
Method: Cells were homogenized by sonication in a solution containing 20 mM Tris-HCl (pH 8.0), 0.5 mM EDTA, 0.1% NP-40 and 1 mM phenylmethylsulfonyl (PMSF).
Further purification over a 5′ AMP Sepharose column yielded a single band of about 43 kDa in a silver-stained SDS-PAGE gel. […] After dialysis against 20 mM Tris-HCl (pH 8.0), the proteins were fractionated on a MonoQ column with increasing concentrations of NaCl. […] SDS-PAGE and Coomassie blue staining gave the single band of about 43 kDa.
The purified protein was digested by trypsin and the resulting peptides were analyzed by mass spectrometry. Peptide mass database search with GPMAW program identified the protein as mouse GS-FDH(SP-P28474) with high scores, matching 8 fragments (42% coverage) to mouse GS-FDH.

[22] = test system: intractable angina; experiment: Example VIII: patient with intractable angina; format: in vivo, human; settings: 6 grams injected at 20 milligrams per milliliter, daily for seven days; by six weeks
Method: A person with intractable angina is administered ribavirn as 6 grams diluted to a final volume of 300 cc in sterile water and injected at a final concentration of 20 milligrams per milliliter, given daily for seven days.

[23] = test system: chronic psoriasis; experiment: Example XI: patient with chronic psoriasis; format: in vivo, human; settings: topical paste, 5% with acetylsalicylic acid 2%, 8 hours a day, two weeks
Method: A person with chronic psoriasis presents at the dermatologist. A paste comprised of acetylsalicylic acid, 2%, combined with 5% ribavirin was applied topically for 8 hours a day.

[24] = test system: tumors; settings: previous use; cited from earlier work
[25] = test system: pulmonary embolism; experiment: Example IX: patient with pulmonary embolism; format: in vivo, human; settings: inhaled, 6 grams in 300 cc, aerosol, 12 hours/day for three days
[26] = test system: ringworm; experiment: Example XVI: ringworm; format: in vivo, human; settings: topical ointment 5%, daily for a week
[27] = test system: sfa1 mutant cells; experiment: Growth of GS-FDH-deficient yeast under nitrosative or oxidative stress; format: cell-based
From the text: Genet. 237, 351 (1993) (SFA1/YDL168w) was replaced with dominant selectable cassettes Kan 2 (resistant to G418) or hphMX (resistant to hydromycin) by direct targeting as described in Wach, A., et al., Yeast 10, 1793 (1994). KanMX2 is described in Wach, A. et al., Yeast 10, 1793 (1994). hphMX is described in Goldstein and MeCuskler, Yeast 15, 1541 (1991).

[28] = test system: human epithelial A549 cells; experiment: GSNO metabolizing activity of A549 cell lysate (Saville assay); format: biochemical; settings: A549 lysate 4 μg/ml, 200 μM GSNO, 37° C., 5 minutes
Method: (§2) The cells were from cell lines obtained from the ATCC. Cells were homogenized by sonication in a solution containing 20 mM Tris-HCl (pH 8.0), 0.5 mM EDTA, 0.1% NP-40 and 1 mM phenylmethylsulfonyl fluoride (PMSF). […] After precipitation of the reaction mixtures with trichloroacetic acid (8.3% final concentration), the supernatants were diluted threefold in the buffer and nitrosothiol levels in the reaction mixture were measured by the Saville assay as described in Stamler, J. S., Science 276, 2034 (1997). Data are the mean of two independent experiments.

[29] = test system: human monocyte THP-1 cells; experiment: GSNO metabolizing activity of THP-1 cell lysate (Saville assay); format: biochemical; settings: THP-1 lysate 4 μg/ml, 200 μM GSNO, 37° C., 5 minutes
Method: as §2

[30] = test system: human HeLa cells; experiment: GSNO metabolizing activity of HeLa cell lysate (Saville assay); format: biochemical; settings: HeLa lysate 4 μg/ml, 200 μM GSNO, 37° C., 5 minutes
Method: as §2

[31] = test system: wild-type Y190 cells; experiment: Growth of wild-type yeast treated with GSNO; format: cell-based; settings: same concentrations as for the mutants
[32] = GSNO decomposition in reaction buffer, no lysate (Saville assay); format: biochemical; settings: 200 μM GSNO, 37° C., 5 minutes
Method: After precipitation of the reaction mixtures with trichloroacetic acid (8.3% final concentration), the supernatants were diluted threefold in the buffer and nitrosothiol levels in the reaction mixture were measured by the Saville assay as described in Stamler, J. S., Science 276, 2034 (1997). Data are the mean of two independent experiments.

[33] = test system: restenosis; experiment: Example X: restenosis post-angioplasty, drug-coated stent; format: in vivo, human; settings: Nir stent coated with drug, 30% per polymer
From the text: The patient was discharged the following day, and did well.

Compound: CCCc1nn(C)c2c(=O)[nH]c(-c3cc(S(=O)(=O)N4CCN(C)CC4)ccc3OCC)nc12 [Viagra]
impotence ([1]; Viagra alone): no improvement

Compound: N[C@H](CCC(=O)N[C@H](CS)C(=O)NCC(=O)O)C(=O)O [D-glutathione]
Blood pressure, systolic ([2]; 600 mg TID coadministered with nitroprusside, from 200): 160
course after stent placement [3]: does well
signs and symptoms [4]: signs and symptom resolve
PO2 [5]: 80 mm/Hg
symptoms (chest pain) [6]: relief of their symptoms
symptoms (chest pain) [7]: total relief of symptoms
symptoms (difficulty breathing, fever) [8]: symptoms resolve
swelling and LSTs [9]: swelling and elevated LSTs are reduced
clinical course [10]: stabilized their deteriorating course
symptoms (urinary frequency and hesitancy) [11]: symptoms gradually resolve
tumor stage on restaging [12]: 3A
blood pressure [13]: 140/80
breathing [14]: breathing improves
adenopathy [15]: resolution of adenopathy
symptoms of cough and shortness of breath [16]: resolution of symptoms of cough and shortness of breath
liver function [17]: gradual normalization of liver function
response to acetylcholine [18]: improved response to acetylcholine

Compound: CNC(=N)NCCC[C@H](N)C(=O)O [N^G-methyl-L-arginine]
cell death [19]: died to a lesser extent
nitric oxide synthase activity left [20]: 20%
cell death ([20]; liver injured by cytokine administration): found to die

specific activity for oxidation, as share of the GSNO reducing activity [21]: about 6%
Compound: N[C@@H](CCC(=O)N[C@@H](CSCO)C(=O)NCC(=O)O)C(=O)O [S-hydroxymethylglutathione]

Compound: NC(=O)c1ncn([C@@H]2O[C@H](CO)[C@@H](O)[C@H]2O)n1 [ribavirin]
angina [22]: angina had improved
psoriatic lesion [23]: psoriatic lesion had resolved
activity as antitumor agent [24]: inactive
symptoms (shortness of breath, hemoptysis) [25]: improvement in symptoms
skin lesion [26]: skin lesion resolve

Compound: N[C@@H](CCC(=O)N[C@@H](CSN=O)C(=O)NCC(=O)O)C(=O)O [GSNO, S-nitrosoglutathione]
Growth of cells ([27]; sfa1 mutant cells (G418^r and hygromicin^r clones)): markedly inhibited
symptoms (difficulty breathing, fever) [8]: symptoms resolve
GSNO metabolizing activity ([28]; +NADH): 72.3%
GSNO metabolizing activity ([28]; +NADPH + GSH + ASA): 43.9%
GSNO metabolizing activity ([28]; Buffer only): 14.7%
GSNO metabolizing activity ([29]; +NADH): 90.8%
GSNO metabolizing activity ([29]; +NADPH + GSH + ASA): 22.6%
GSNO metabolizing activity ([29]; Buffer only): 18.8%
GSNO metabolizing activity ([30]; +NADH): 84.2%
GSNO metabolizing activity ([30]; +NADPH + GSH + ASA): 35.4%
GSNO metabolizing activity ([30]; Buffer only): 29.9%
Growth of cells [31]: little effect
GSNO metabolizing activity ([32]; +NADH): 0.0%
GSNO metabolizing activity ([32]; +NADPH + GSH + ASA): 0.7%
GSNO metabolizing activity ([32]; Buffer only): 6.2%

Compound: NC(=O)c1coc([C@@H]2O[C@H](CO)[C@@H](O)[C@H]2O)c1 [furanfurin, 5-β-D-ribofuranosylfuran-3-carboxamide]
activity as antitumor agent [24]: inactive

Compound: OO [Compound H2O2, H2O2]
sensitivity to the toxic effects, mutant versus wild-type Y190 cells ([27]; sfa1 mutant cells): no more sensitive

Compound: nitroprusside
Blood pressure, systolic ([2]; nitroprusside alone, 1.0 μg/kg/min IV infusion for 10 minutes, from 240): 200

Compound: COc1c(C)c2c(c(O)c1C/C=C(\C)CCC(=O)O)C(=O)OC2 [mycophenolic acid]
impotence ([1]; topical 5% paste added to Viagra): good results
outcome of stent deployment [33]: successful results
